The numbers were not newly measured in patent US20080175827A1, “PHOSPHOLIPASE C ZETA MEDIATED OOCYTE ACTIVATION, COMPOSITIONS FOR USE THEREIN, AND ASSAYS FOR DETECTING AND IDENTIFYING AGENTS FOR TREATING MALE INFERTILITY” (Michigan State University, priority 2006, published 2008), which cites them from elsewhere.

Data set [1] has as its system IP3R. The note with it: mice; Jellerette et al. 2000.
In data set [2] the test system is bovine eggs. The note with it: bovine oocytes; Malcuit and Fissore 2007.

Take `[Cl-].[Cl-].[Sr+2]` [strontium chloride]: in data set [1], the IP3R downregulation entry is “does not downregulate IP3R”. The “[Ca2+]i oscillations” value in data set [2] was “does not induces [Ca^2+]i oscillations”.
